{
  "source": "paper PMC11960969",
  "about": "“Mdga2 deficiency leads to an aberrant activation of BDNF/TrkB signaling that underlies autism-relevant synaptic and behavioral changes in mice” (PLOS Biology, 2025)",
  "key": {"mice [1]": {"tested_on": "mice", "experiment": "Novel location recognition (NLR) test", "format": "in vivo, mouse", "description": "(§1) Six- to eight-week-old male mice were subjected to various behavioral tests. Mice were allowed to acclimatize in the testing room for 1 h prior to each test. Data were recorded and analyzed using Smart 3.0 video tracking system (Panlab, Harvard Apparatus).\nThis test consists of habituation, training, and testing phases. Mice were first put into the open field apparatus described above for 10 min habituation. During the training phase, mice were allowed to freely explore two identical objects placed near two opposite corners of the open field arena for 8 min. Twenty-four hour later, one of the objects was moved to be close to a third corner (N: Novel location) while the other one was kept in the same spatial position (F: Familiar location). Mice were then tested for their exploration behavior with these objects for 8 min. The discrimination index (T(N − F)/T(N + F): time spent exploring the novel location minus time spent in familiar location over time spent to both novel and familiar location) was calculated to assess the recognition memory of mice."}, "mice [2]": {"tested_on": "mice", "experiment": "Three-chamber test (sociability and social novelty)", "format": "in vivo, mouse", "description": "as §1\nThis test was performed as described previously with minor modifications. The apparatus (60 W × 40 D × 22 H cm) has two transparent partitions separating the left, the middle, and the right chambers (20 × 40 cm each), and each partition has a small opening (5 × 5 cm) for access to each chamber. A fixed wire cylinder (8.5 cm diameter) was placed in each of the left and the right chambers. This test consisted of three phases: habituation, sociability test, and social novelty test. During habituation, both left and right cylinders were empty, and tested mice were placed in the center and allowed to explore freely for 10 min. During the sociability test, a gender-matched strange mouse (S1) was enclosed in one empty cylinder, and mice were allowed to freely explore for 10 min. Their time spent sniffing S1 or the other empty cylinder (E) was measured and the sociability preference index (T(S1 − -E)/T(S1 + E): time spent sniffing S1 minus time spent sniffing E over time spent sniffing both S1 and E) was calculated for comparison. During the social novelty test, another gender-matched unfamiliar mouse (S2) was placed into the empty cylinder and mice were allowed to freely explore for another 10 min. Their time spent sniffing S1 or S2 was measured and the social novelty preference index (T(S2 − S1)/T(S2 + S1): time spent sniffing S2 minus time spent sniffing S1 over time spent sniffing both S2 and S1) was calculated for comparison."}, "[3]": {"tested_on": "CA1 pyramidal neurons (mEPSC, mIPSC)", "experiment": "Whole-cell recording of mEPSCs and mIPSCs in hippocampal slices", "parameters": "species or system mouse", "conditions": "chronic 0.5 mg/kg i.p."}, "mice [4]": {"tested_on": "mice", "experiment": "Self-grooming test", "format": "in vivo, mouse", "conditions": "Mdga2+/- mice, chronic 0.5 mg/kg i.p.; Test 1 Interaction F(1,56) = 0.1344, p = 0.7153; Test 2 F(1,56) = 0.2389, p = 0.6269", "description": "as §1\nTested mice were placed individually in a clean cage with fresh bedding. After 5 min of habituation, the spontaneous behaviors of mice were recorded for 30 min and their self-grooming behavior was analyzed."}},
  "data": [
    {"smiles": "O=C(Nc1ccccc1C(=O)NC1CCCCNC1=O)c1cc2ccccc2s1", "note": "(stereo not shown) [ANA-12, reference compound]", "values": [
      {"measurement": "impaired recognition memory", "setting": "mice [1]; AAV-Mdga2 shRNA mice, S6C and S6G Fig", "value": "neither ANA-12 nor the MDGA2-P2 peptide had effect on rescuing impaired recognition memory"},
      {"measurement": "impaired cognitive function", "setting": "mice [1]; Mdga2+/- mice, acute 0.5 mg/kg i.p. 3 days, Test 1 Interaction F(1,56) = 3.941, p = 0.0520, Test 2 F(1,56) = 0.9635, p = 0.3305", "value": "nor did it attenuate impaired cognitive function"},
      {"measurement": "recognition memory", "setting": "mice [1]; Mdga2+/- mice, chronic 0.5 mg/kg i.p. twice per week 3 weeks, Test 1 Interaction F(1,56) = 0.6210, p = 0.4340, Test 2 F(1,56) = 0.7506, p = 0.3900", "value": "did not affect the locomotor activity (Fig 5B) or recognition memory"},
      {"measurement": "impaired sociability and social novelty deficits (three-chamber)", "setting": "mice [2]; AAV-Mdga2 shRNA mice, ANA-12 0.5 mg/kg i.p. twice per week 3 weeks, n = 10, Fig 6D", "value": "rescued impaired sociability and social novelty deficits"},
      {"measurement": "sociability preference", "setting": "mice [2]; Mdga2+/- mice, acute 0.5 mg/kg i.p. 3 days, acute Test 1: Interaction F(1,56) = 9.336, p = 0.0034", "value": "significantly higher sociability preference when compared to controls in acute Test 1"},
      {"measurement": "impaired sociability and social novelty", "setting": "mice [2]; Mdga2+/- mice, chronic 0.5 mg/kg i.p., chronic Test 1, sociability F(1,56) = 13.52, p = 0.0005, novelty F(1,56) = 3.144, p = 0.0817", "value": "significantly improved impaired sociability and social novelty"},
      {"measurement": "impaired sociability", "setting": "mice [2]; Mdga2+/- mice, chronic 0.5 mg/kg i.p., chronic Test 2, Interaction F(1,56) = 7.339, p = 0.0089", "value": "significantly improved impaired sociability in Mdga2^ +/− mice in chronic Test 2"},
      {"measurement": "increased mEPSC amplitude and frequency", "setting": "[3]; Mdga2+/- mice, CA1, n = 14 cells from 3 mice, Interaction F(1,52) = 6.023, p = 0.0175, 5.282, p = 0.0256", "value": "reversed the increased mEPSC amplitude and frequency"},
      {"measurement": "mIPSC frequency or amplitude", "setting": "[3]; hippocampal slices CA1, n = 15 cells from 3 mice, Interaction F(1,56) = 0.5436, p = 0.4640, 0.0127, p = 0.9106", "value": "nor did chronic ANA-12 treatment affect mIPSC frequency or amplitude"},
      {"measurement": "repetitive self-grooming behavior", "setting": "mice [4]", "value": "no rescuing effect on repetitive self-grooming behavior"}
    ]}
  ]
}
